Reference: patent US20050143472A1, “Novel treatment for pathologies associated with oxidative damage” (priority 2002, published 2005)
Where two headings read alike, the source gives them in different places.

How the values were obtained:
[1] = system: HL-60 human promyelogenous leukemia cells
Excerpt: (§1) In this Example, the method used to examine hpao mRNA production by cultured cells undergoing apoptosis is described.

[2] = system: OVCAR-3 human ovarian carcinoma cells; details: approximately 50 μM, within 20 hrs
Excerpt: as §1

[3] = biological target: T1, mPAO (Mus musculus, UniProt Q8C0L6); assay: Oxygraph assay of O2 consumption, progress-curve analysis; assay type: biochemical, murine
T1 construct: the full length cDNA of mpao was released by Nde I and Hind III treatment, and ligated into Nde I and Hind III sites of pET29c; made in house; host or cells: E. coli BL21 GOLD (DE3), plasmid pET-MPAO (pET29c)
Procedure: Some assays (oxygraph assays) were carried out by directly monitoring O2 consumption in air-saturated buffer ([O2]=0.237 mM) or buffer saturated with pure O2 at 30° C. ([O2]=1.12 mM). The depletion of O2 was detected with a Yellow Springs Instruments, Inc. Model 53 Oxygen Monitor equipped with a Clark electrode. […] Following a published procedure (Goudar et al., Biochim. Biophys. Acta 1429:377-383 [1999]), the data were fitted to the integrated Mechaelis-Menton equation. The analyses were done using Maple VI (Windows 2000) software (Waterloo Maple, Inc.) running on a PC computer. […] Inhibition by the H2O2, formed as a product of polyamine oxidation by mPAO, was assessed by addition of 2 μL of a 30 mg/mL (30,000 units/mg) solution of catalase, after [O2] reached zero.
The catalase immediately converted each mole of H2O2 to 0.5 mol of O2 (since [O2]=1.12 mM for pure O2-saturated buffer, then [O2]=0.56 mM immediately after catalase addition). In the presence of catalase, O2 depletion should occur at 0.5× the rate as it does in the absence of catalase (unless H2O2 inhibition is operating). With catalase present, each molecule of O2 will be converted eventually to H2O (4-electron equivalents), rather than to H2O2 (2-electron equivalents).

[4] = biological target: T1, mPAO; assay: HPLC analysis of PAO oxidation products; assay type: biochemical, murine
Excerpt: In this example, methods are described for determining the nature of the products of substrate oxidation by PAO. In a solution at pH 7.6 containing catalase to destroy H2O2, mPAO and N^1-acetyl-Spm, at known concentrations, were allowed to react until the latter had been completely oxidized. mPAO and N^1-acetyl-Spd were similarly allowed to react. Both reactions solutions contained a known amount of N-(3-aminopropyl)-1,10-diaminodecane (Tocris Cookson) as an internal standard. […] Aliquots of these reaction mixtures were treated with dansyl chloride (5-dimethylamino-1-naphthalenesulfonyl chloride) obtained from Sigma. The resulting dansylated polyamine products from each reaction were analyzed by reverse-phase high-pressure liquid chromatography (HPLC) following established procedures (Hunter, Methods in Molecular Biology: Polyamine Protocols, Morgan (ed.) Human Press, Totowa, N.J., Vol. 79, Chapter 14, pp 119-123). […] Detection was accomplished with a Gilson Spetra/Glo fluorescence detector using a 7-51× excitation filter (330-400 nm) and a 3-72M emission filter (460-600 n m). […]
Aliquots of each of the above described enzyme-reaction solutions were treated with an equal volume of 2,4-dinitrophenylhydrazine (Acros Organics) solution (100 mg in 94 mL ethanol+6 mL of concentrated HCl). […] The 368-nm chromatograms were used for quantitative analyses.

T1 sequence (Q8C0L6 whole entry E184K/L285S/R416L/R417S/Q419R/E451A/V490I/S491G/V497A): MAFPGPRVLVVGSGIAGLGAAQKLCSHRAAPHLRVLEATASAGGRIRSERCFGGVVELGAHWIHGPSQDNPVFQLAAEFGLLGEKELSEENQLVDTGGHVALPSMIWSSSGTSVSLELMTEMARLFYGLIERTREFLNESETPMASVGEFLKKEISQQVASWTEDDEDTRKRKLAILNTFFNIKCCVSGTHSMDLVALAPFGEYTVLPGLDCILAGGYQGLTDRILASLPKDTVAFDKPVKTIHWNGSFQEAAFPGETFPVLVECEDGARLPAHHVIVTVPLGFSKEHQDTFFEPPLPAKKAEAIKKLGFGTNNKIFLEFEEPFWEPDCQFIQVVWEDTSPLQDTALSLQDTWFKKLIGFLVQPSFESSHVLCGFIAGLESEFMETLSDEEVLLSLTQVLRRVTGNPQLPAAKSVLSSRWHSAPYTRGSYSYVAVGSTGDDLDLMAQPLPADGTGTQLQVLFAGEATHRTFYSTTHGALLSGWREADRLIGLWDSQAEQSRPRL

`CC(=O)NCCCNCCCCNCCCN` [N^1-acetyl-Spm, N^1-acetyl-spermine] was tested, and the HL-60 cell survival ([1]; 24 hrs, all tested concentrations) was “survived for 24 hrs”, the HL-60 cells survived ([1]; 72 hrs exposure, 0.05 mM) was 100% and the HL-60 cells killed ([1]; 72 hrs exposure, 0.1 mM) was 30%. For the same molecule, the HL-60 cells killed ([1]; 72 hrs exposure, 0.2 mM) was 50%, the HL-60 cells killed ([1]; 72 hrs exposure, 0.5 mM) was 80% and the OVCAR-3 cells killed [2] was 100%. For the same molecule, the KQ ([3]; Michaelis constant for O2, saturating amine substrate) was 180 ± 20 µM, the kcat/KQ ([3]; for O2, saturating amine substrate, pure O2-saturated buffer) was “(4.4 ± 0.4) × 10^4 M^−1sec−^1” and the “KS(calc)” value ([3]; true KS calculated from apparent KS′ with KS = KS′(1 + KO/[O2])) was 3.1 ± 0.3 µM. The kcat ([3]; true value, saturating substrate (3.7 mM), buffer saturated with pure O2 (1.12 mM)) was 8.0 ± 0.8 s⁻¹, the “3-acetamidopropanal produced on complete oxidation by PAO” value ([4]; 2,4-dinitrophenylhydrazine HPLC) was “equivalent amount” and the “polyamine product of complete PAO oxidation (Spd or putrescine)” value ([4]; pH 7.6, catalase present, dansyl chloride HPLC) was “stoichiometric amounts”.
